# Experimental data as given in ChEMBL document CHEMBL2203257 (Bioorg Med Chem Lett, 2012).
# Tests used:
# [1] = target: Calcium/calmodulin-dependent protein kinase type IV (Homo sapiens, UniProt Q16566); test: Inhibition of CAMK4
# [2] = target: T1, Casein kinase II subunit alpha (Homo sapiens, UniProt P68400); test: Inhibition of CK2a1
# [3] = target: Casein kinase I isoform epsilon (Homo sapiens, UniProt P49674); test: Inhibition of CSNK1E
# [4] = target: T1, Casein kinase II subunit alpha; test: Inhibition of CSNK2A1
# [5] = target: eIF-2-alpha kinase GCN2 (Homo sapiens, UniProt Q9P2K8); test: Inhibition of EIF2AK4
# [6] = target: Ephrin type-A receptor 3 (Homo sapiens, UniProt P29320); test: Inhibition of EPHA3
# [7] = target: Ephrin type-B receptor 4 (Homo sapiens, UniProt P54760); test: Inhibition of EPHB4
# [8] = target: Tyrosine-protein kinase Fgr (Homo sapiens, UniProt P09769); test: Inhibition of FGR
# [9] = target: Scaffold protein ILK (Homo sapiens, UniProt Q13418); test: Inhibition of ILK
# [10] = target: Interleukin-1 receptor-associated kinase 1 (Homo sapiens, UniProt P51617); test: Inhibition of IRAK1
# [11] = target: LIM domain kinase 1 (Homo sapiens, UniProt P53667); test: Inhibition of LIMK1
# [12] = target: Dual specificity mitogen-activated protein kinase kinase 2 (Homo sapiens, UniProt P36507); test: Inhibition of MAP2K2
# [13] = target: Mitogen-activated protein kinase kinase kinase 1 (Homo sapiens, UniProt Q13233); test: Inhibition of MAP3K1
# [14] = target: Mitogen-activated protein kinase kinase kinase 5 (Homo sapiens, UniProt Q99683); test: Inhibition of MAP3K5
# [15] = target: Mitogen-activated protein kinase 14 (Homo sapiens, UniProt Q16539); test: Inhibition of MAPK14
# [16] = target: Macrophage-stimulating protein receptor (Homo sapiens, UniProt Q04912); test: Inhibition of MST1R
# [17] = target: Phosphatidylinositol 3-kinase catalytic subunit type 3 (Homo sapiens, UniProt Q8NEB9); test: Inhibition of PIK3C3
# [18] = target: Phosphoinositide 3-kinase regulatory subunit 4 (Homo sapiens, UniProt Q99570); test: Inhibition of PIK3R4
# [19] = target: Phosphatidylinositol 5-phosphate 4-kinase type-2 gamma (Homo sapiens, UniProt Q8TBX8); test: Inhibition of PIP4K2C
# [20] = target: Membrane-associated tyrosine- and threonine-specific cdc2-inhibitory kinase (Homo sapiens, UniProt Q99640); test: Inhibition of PKMYT1
# [21] = target: Protein kinase C alpha type (Homo sapiens, UniProt P17252); test: Inhibition of PRKCA
# [22] = target: Ribosomal protein S6 kinase alpha-1 (Homo sapiens, UniProt Q15418); test: Inhibition of RPS6KA1
# [23] = target: Proto-oncogene tyrosine-protein kinase Src (Homo sapiens, UniProt P12931); test: Inhibition of SRC
# [24] = target: Serine/threonine-protein kinase TBK1 (Homo sapiens, UniProt Q9UHD2); test: Inhibition of TBK1
# [25] = target: Non-receptor tyrosine-protein kinase TNK1 (Homo sapiens, UniProt Q13470); test: Inhibition of TNK1
# [26] = target: Activated CDC42 kinase 1 (Homo sapiens, UniProt Q07912); test: Inhibition of TNK2
# [27] = Half life in cynomolgus monkey; type: ADME, organism-based, Macaca fascicularis; conditions: in vivo
# [28] = target: Cytochrome P450 1A2 (Homo sapiens, UniProt P05177); test: Inhibition of CYP1A2 at >20 uM; type: ADME
# [29] = target: Serine-protein kinase ATM (Homo sapiens, UniProt Q13315); test: Inhibition of ATM
# [30] = target: Bone morphogenetic protein receptor type-1A (Homo sapiens, UniProt P36894); test: Inhibition of BMPR1A
# [31] = target: Serine/threonine-protein kinase B-raf (Homo sapiens, UniProt P15056); test: Inhibition of BRAF
# [32] = target: Atypical kinase COQ8A, mitochondrial (Homo sapiens, UniProt Q8NI60); test: Inhibition of CABC1
# [33] = target: Calcium/calmodulin-dependent protein kinase type II subunit delta (Homo sapiens, UniProt Q13557); test: Inhibition of CAMK2D
# T1 sequence (P68400 whole entry, canonical isoform): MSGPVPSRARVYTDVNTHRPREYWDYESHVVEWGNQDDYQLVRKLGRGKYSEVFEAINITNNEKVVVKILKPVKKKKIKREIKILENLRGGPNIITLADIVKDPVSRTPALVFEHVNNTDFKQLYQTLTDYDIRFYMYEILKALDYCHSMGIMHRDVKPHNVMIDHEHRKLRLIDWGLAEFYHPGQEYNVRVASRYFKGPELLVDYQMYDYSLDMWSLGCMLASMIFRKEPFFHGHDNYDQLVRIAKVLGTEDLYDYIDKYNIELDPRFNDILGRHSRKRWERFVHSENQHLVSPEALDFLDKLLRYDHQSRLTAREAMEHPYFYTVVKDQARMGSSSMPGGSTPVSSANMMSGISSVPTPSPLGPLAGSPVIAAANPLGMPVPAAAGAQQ
# Mitogen-activated protein kinase 14, sequence (Q16539 whole entry): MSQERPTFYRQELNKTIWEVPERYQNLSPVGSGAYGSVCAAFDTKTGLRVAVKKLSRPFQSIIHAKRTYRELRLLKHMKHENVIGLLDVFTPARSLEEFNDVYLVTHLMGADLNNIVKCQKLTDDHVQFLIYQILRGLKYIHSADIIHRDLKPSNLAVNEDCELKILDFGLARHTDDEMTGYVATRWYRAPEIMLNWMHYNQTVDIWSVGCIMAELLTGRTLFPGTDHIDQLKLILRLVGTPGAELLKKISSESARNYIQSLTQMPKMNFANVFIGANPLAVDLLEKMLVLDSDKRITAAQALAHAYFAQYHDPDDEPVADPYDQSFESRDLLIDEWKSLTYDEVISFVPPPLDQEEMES
# Mitogen-activated protein kinase kinase kinase 5, sequence (Q99683 whole entry): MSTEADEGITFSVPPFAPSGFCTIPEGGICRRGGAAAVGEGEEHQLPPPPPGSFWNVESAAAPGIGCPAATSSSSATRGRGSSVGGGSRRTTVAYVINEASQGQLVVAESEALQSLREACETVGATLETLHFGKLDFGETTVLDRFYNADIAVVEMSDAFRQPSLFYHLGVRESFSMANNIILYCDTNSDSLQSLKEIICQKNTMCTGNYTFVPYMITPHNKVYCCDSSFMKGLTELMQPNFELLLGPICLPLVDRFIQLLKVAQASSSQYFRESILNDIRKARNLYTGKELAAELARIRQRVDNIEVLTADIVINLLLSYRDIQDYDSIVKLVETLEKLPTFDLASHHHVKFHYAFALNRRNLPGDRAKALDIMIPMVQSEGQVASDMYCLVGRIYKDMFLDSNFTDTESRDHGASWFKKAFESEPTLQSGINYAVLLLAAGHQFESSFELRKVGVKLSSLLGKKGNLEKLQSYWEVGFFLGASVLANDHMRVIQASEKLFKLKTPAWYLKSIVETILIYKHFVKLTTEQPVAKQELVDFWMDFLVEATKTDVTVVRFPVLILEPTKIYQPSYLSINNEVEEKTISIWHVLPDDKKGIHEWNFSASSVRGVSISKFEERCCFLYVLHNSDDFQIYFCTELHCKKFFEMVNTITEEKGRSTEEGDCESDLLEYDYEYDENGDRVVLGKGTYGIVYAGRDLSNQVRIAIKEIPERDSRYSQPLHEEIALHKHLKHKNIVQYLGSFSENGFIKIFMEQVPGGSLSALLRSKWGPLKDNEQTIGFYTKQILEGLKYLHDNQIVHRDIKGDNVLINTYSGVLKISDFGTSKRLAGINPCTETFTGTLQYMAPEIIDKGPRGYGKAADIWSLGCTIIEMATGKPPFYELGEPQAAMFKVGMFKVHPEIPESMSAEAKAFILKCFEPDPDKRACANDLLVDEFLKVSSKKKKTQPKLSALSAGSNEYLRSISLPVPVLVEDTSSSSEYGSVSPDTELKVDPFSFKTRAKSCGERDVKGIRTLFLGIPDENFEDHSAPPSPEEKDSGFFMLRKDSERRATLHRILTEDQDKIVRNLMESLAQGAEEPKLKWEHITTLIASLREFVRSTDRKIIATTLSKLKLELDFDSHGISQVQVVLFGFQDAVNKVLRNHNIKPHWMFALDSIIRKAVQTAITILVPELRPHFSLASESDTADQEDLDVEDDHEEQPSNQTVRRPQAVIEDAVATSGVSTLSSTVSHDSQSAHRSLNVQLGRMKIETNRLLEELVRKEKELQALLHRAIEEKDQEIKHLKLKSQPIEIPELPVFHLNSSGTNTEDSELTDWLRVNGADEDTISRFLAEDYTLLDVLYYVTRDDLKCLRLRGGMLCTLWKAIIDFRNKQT
# Proto-oncogene tyrosine-protein kinase Src, sequence (P12931 2-536 limits assumed): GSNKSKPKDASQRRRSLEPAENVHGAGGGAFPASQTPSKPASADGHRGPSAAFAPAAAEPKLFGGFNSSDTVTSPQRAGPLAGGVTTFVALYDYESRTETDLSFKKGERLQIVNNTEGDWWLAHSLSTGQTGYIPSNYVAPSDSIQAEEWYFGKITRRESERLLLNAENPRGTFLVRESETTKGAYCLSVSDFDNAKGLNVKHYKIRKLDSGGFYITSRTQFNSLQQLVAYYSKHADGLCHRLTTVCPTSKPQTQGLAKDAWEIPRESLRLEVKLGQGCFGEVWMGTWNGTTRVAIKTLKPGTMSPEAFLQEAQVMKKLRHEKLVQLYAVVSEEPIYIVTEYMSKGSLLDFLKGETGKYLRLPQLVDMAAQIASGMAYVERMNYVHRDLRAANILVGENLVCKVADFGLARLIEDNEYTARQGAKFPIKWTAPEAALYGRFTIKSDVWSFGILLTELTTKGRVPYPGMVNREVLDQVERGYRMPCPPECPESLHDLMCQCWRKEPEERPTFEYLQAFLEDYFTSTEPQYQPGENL
# Calcium/calmodulin-dependent protein kinase type IV, sequence (Q16566 whole entry): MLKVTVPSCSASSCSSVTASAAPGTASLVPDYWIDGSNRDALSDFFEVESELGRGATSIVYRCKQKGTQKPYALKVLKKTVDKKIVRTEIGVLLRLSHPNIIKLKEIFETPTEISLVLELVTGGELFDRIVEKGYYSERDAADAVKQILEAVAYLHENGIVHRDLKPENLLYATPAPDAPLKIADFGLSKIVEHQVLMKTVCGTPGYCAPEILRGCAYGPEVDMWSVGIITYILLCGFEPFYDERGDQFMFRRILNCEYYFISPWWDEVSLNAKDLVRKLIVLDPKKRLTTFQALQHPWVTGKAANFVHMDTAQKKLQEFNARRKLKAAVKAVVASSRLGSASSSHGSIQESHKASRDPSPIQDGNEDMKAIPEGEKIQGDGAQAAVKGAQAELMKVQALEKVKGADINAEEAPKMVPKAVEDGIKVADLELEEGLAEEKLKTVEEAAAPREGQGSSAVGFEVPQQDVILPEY
# Dual specificity mitogen-activated protein kinase kinase 2, sequence (P36507 whole entry): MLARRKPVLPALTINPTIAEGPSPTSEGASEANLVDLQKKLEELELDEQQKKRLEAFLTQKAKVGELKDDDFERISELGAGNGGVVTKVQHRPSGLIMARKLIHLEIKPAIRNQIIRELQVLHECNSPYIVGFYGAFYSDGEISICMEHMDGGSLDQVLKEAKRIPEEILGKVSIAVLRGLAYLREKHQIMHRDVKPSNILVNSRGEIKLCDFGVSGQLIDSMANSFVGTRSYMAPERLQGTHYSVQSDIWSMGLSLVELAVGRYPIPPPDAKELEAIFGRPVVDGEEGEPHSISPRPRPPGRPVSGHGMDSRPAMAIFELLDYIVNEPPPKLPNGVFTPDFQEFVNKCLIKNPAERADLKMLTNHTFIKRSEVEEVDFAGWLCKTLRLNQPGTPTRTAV
# Casein kinase I isoform epsilon, sequence (P49674 whole entry, canonical isoform): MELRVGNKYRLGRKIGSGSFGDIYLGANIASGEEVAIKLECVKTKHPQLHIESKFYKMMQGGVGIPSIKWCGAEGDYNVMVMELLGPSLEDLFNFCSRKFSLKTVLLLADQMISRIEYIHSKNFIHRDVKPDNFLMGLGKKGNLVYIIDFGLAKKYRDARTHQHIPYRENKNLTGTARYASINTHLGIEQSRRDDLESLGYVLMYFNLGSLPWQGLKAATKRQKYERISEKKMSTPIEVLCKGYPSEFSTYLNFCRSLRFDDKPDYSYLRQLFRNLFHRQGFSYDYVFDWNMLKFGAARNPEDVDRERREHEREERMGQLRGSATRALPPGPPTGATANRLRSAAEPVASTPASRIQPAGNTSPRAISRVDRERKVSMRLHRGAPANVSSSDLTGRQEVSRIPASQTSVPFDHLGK
# Non-receptor tyrosine-protein kinase TNK1, sequence (Q13470 whole entry): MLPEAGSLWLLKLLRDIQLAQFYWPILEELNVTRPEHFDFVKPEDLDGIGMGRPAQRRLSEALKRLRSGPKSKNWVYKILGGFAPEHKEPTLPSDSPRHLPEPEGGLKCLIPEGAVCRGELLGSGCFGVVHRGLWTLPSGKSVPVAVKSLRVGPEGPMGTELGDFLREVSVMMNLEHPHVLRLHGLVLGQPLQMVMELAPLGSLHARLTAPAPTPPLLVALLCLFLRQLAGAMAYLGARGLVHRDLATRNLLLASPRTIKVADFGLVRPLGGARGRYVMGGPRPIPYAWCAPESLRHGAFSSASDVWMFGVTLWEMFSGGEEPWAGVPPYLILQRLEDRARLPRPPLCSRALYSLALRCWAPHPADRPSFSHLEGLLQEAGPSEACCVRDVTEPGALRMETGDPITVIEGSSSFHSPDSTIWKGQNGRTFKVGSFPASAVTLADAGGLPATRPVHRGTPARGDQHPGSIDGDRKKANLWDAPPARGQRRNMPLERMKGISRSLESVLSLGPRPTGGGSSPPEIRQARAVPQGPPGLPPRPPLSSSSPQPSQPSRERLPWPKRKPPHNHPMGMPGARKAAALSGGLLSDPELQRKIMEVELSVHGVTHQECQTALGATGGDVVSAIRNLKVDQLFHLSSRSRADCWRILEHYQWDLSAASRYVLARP
compound,measurement,setting,value
CC(C)(C)NS(=O)(=O)c1cncc(-c2ccn3nc(N)nc3c2)c1,IC50,[1],> 10 µM
same,IC50,[2],> 10 µM
same,IC50,[3],> 10 µM
same,IC50,[4],> 10 µM
same,IC50,[5],> 10 µM
same,IC50,[6],> 10 µM
same,IC50,[7],> 10 µM
same,IC50,[8],> 10 µM
same,IC50,[9],> 10 µM
same,IC50,[10],> 10 µM
same,IC50,[11],> 10 µM
same,IC50,[12],> 10 µM
same,IC50,[13],> 10 µM
same,IC50,[14],> 10 µM
same,IC50,[15],> 10 µM
same,IC50,[16],> 10 µM
same,IC50,[17],> 5.89 µM
same,IC50,[18],> 10 µM
same,IC50,[19],1.07 µM
same,IC50,[20],> 10 µM
same,IC50,[21],> 10 µM
same,IC50,[22],> 10 µM
same,IC50,[23],> 10 µM
same,IC50,[24],> 10 µM
same,IC50,[25],> 10 µM
same,IC50,[26],> 10 µM
same,half-life,[27],6.1 h
same,inhibition (INH),[28],Active
same,IC50,[29],> 10 µM
same,IC50,[30],> 10 µM
same,IC50,[31],> 10 µM
same,IC50,[32],> 10 µM
same,IC50,[33],> 10 µM
